In patent US6420406B1, “Triazolyl disulphides” (Bayer Aktiengesellschaft, priority 1996, dated 2002):

What was measured:
Assay type in all cases: in vivo
Fusarium graminearum = settings: barley, protective, application rate 250 g/ha, evaluation 4 days after inoculation; 100% = no infection
Puccinia recondita = assay: Puccinia test (wheat)/curative; settings: curative, sprayed 48 hours after inoculation, application rate 250 g/ha, evaluation 10 days after inoculation, 100% = no infection
Experimental: Puccinia test (wheat/curative Solvent: 10 parts by weight of N-methyl-pyrrolidone Emulsifier: 0.6 part by weight of alkylaryl polyglycol ether To product a suitable preparation of active compound, 1 part by weight of active compound is mixed with the stated amounts of solvent and emulsifier, and the concentrate is diluted with water to the desired concentration. […] 48 hours after the inoculation the plants are sprayed with the preparation of active compound at the stated application rate. The plants are placed in a greenhouse at a temperature of approximately 20° C. and a relative atmospheric humidity of approximately 80%, in order to promote the development of rust pustules.

[1] = test system: W strain of Pseudocercosporella herpotrichoides; assay: Pseudocercosporella herpotrichoides test; W strain (wheat)/protective; settings: protective, application rate 250 g/ha, evaluation 21 days after inoculation, 100% = no infection
Experimental: Pseudocercosporella herpotrichoides test; W strain (wheat/protective Solvent: 10 parts by weight of N-methyl-pyrrolidone Emulsifier: 0.6 part by weight of alkylaryl polyglycol ether To product a suitable preparation of active compound, 1 part by weight of active compound is mixed with the stated amounts of solvent and emulsifier, and the concentrate is diluted with water to the desired concentration. To test for protective activity, young plants are sprayed with the preparation of active compound at the stated application rate. After the spray coating has dried on, the plants are inoculated at the base of the stem with spores of the W strain of Pseudocercosporella herpotrichoides. The plants are placed in a greenhouse at a temperature of approximately 10° C. and a relative atmospheric humidity of approximately 80%.

Venturia inaequalis = assay: Venturia test (apple)/protective; settings: protective, application rate 50 g/ha, evaluation 12 days after inoculation, 100% = no infection
Experimental: (§1) Venturia test (apple)/protective Solvent: 47 parts by weight of acetone Emulsifier: 3 parts by weight of alkylaryl polyglycol ether To produce a suitable preparation of active compound, 1 part by weight of active compound is mixed with the stated amounts of solvent and emulsifier, and the concentrate is diluted with water to the desired concentration. To test for protective activity, young plants are sprayed with the preparation of active compound at the stated application rate. After the spray coating has dried on, the plants are inoculated with an aqueous conidia suspension of the causative organism of apple scab Venturia inaequalis and then remain placed at 20° C. and a relative atmospheric humidity of approximately 70% for 1 day. The plants are then placed in a greenhouse at 20° C. and at a relative atmospheric humidity of approximately 70%.

[2] = test system: Erysiphe graminis f.sp. hordei; assay: Erysiphe test (barley)/curative; settings: curative, sprayed 48 hours after inoculation, application rate 250 g/ha, evaluation 7 days after inoculation, 100% = no infection
Experimental: Erysiphe Test (barley)/curative Solvent: 10 parts by weight of N-methyl-pyrrolidone Emulsifier: 0.6 parts by weight of alkylaryl polyglycol ether To product a suitable preparation of active compound 1 part by weight of active compound is mixed with the stated amounts of solvent and emulsifier, and the concentrate is diluted with water to the desired concentration. To test for curative activity, young plants are dusted with spores of Erysiphe graminis f.sp. hordei. 48 hours after the incubation, the plants are sprayed with the preparation of active compound at the stated application rate. The plants are placed in a greenhouse at a temperature of approximately 20° C. and a relative atmospheric humidity of approximately 80%, in order to promote the development of mildew pustules.

[3] = test system: Erysiphe graminis f.sp. hordei; assay: Erysiphe test (barley)/protective; settings: protective, application rate 250 g/ha, evaluation 7 days after inoculation, 100% = no infection
Experimental: (§2) Erysiphe test (barley)/protective Solvent: 10 parts by weight of N-methyl-pyrrolidone Emulsifier: 0.6 parts by weight of alkylaryl polyglycol ether To prepare a suitable preparation of active compound, 1 part by weight of active compound if mixed with the stated amounts of solvent and emulsifier, and the concentrate is diluted with water to the desired concentration. To test for protective activity, young plants are sprayed with the preparation of active compound at the stated application rate. After the spray coating has dried on, the plants are dusted with spores of Erysiphe graminis f.sp. hordei. The plants are placed in a greenhouse at a temperature of approximately 20° C. and a relative atmospheric humidity of approximately 80%, in order to promote the development of mildew pustules.

Sphaerotheca fuliginea = assay: Sphaerotheca test (cucumber)/protective; settings: protective, application rate 50 g/ha, evaluation 10 days after inoculation, 100% = no infection
Experimental: Sphaerotheca test (cucumber/protective Solvent: 47 parts by weight of acetone Emulsifier: 3 parts by weight of alkylaryl polyglycol ether To produce a suitable preparation of active compound, 1 part by weight of active compound is mixed with the stated amounts of solvent and emulsifier, and the concentrate is diluted with water to the desired concentration. To test for protective activity, young plants are sprayed with the preparation of active compound at the stated application rate. After the spray coating has dried on, the plants are inoculated with an aqueous spore suspension of Sphaerotheca fuliginea. The plants are subsequently placed in a greenhouse at 23 to 24° C. and at a relative atmospheric humidity of approximately 75%.

Podosphaera leucotricha = assay: Podosphaera test (apple)/protective; settings: protective, application rate 50 g/ha, evaluation 10 days after inoculation, 100% = no infection
Experimental: as §1, with “Podosphaera” for “Venturia”, “product” for “produce”, “spore” for “conidia”, “mildew Podosphaera leucotricha.” for “scab Venturia inaequalis and then remain placed at 20° C. and a relative atmospheric humidity of approximately 70% for 1 day.”, “23°” for “20°”, “75%.” for “70%.”

[4] = test system: Erysiphe graminis f.sp. tritci; assay: Erysiphe test (wheat)/protective; settings: protective, application rate 250 g/ha, evaluation 7 days after inoculation, 100% = no infection
Experimental: as §2, with “test (wheat)/protective” for “test (barley)/protective”, “compound is” for “compound if”, “graminis […].” for “graminis f.sp. hordei.”

Measured: Efficacy in %

OC(Cc1ccccc1Cl)(Cn1ncnc1SSc1ncnn1CC(O)(Cc1ccccc1Cl)C1(Cl)CC1)C1(Cl)CC1 (centres unmarked) [Example I-1, di-{1-[2-(1-chlorocyclopropyl)-3-(2-chloro-phenyl)-2-hydroxy-propyl-1]-1,2,4-triazol-5-yl} disulphide]
100%: all assays above

Fc1ccc(C2(Cn3ncnc3SSc3ncnn3CC3(c4ccc(F)cc4)OC3c3ccccc3Cl)OC2c2ccccc2Cl)cc1 (centres unmarked) [Example I-2]
96%: Podosphaera leucotricha
92%: Sphaerotheca fuliginea
